SMILES strings stand for the structures.

The subject of one test is KM mice. As to the kind of experiment: Test for drug-induced disappearance of righting reflex in mice. The class given is in vivo. The note with it: 30 mg/kg, single rapid bolus via tail vein. The method, boiled down: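 Female KM mice (18–25 g), randomly grouped, given a single rapid bolus via tail vein. Latency (administration to loss of righting reflex) and duration (loss to recovery) recorded.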
`O=C(CC[C@@H]1N=C(c2ccccc2Cl)c2cc(Cl)ccc2-n2c1n[nH]c2=S)OCCN1CCOCC1` [Compound 137, (S)-3-(8-chloro-6-(2-chlorophenyl)-1-thio-2,4-dihydro-1H-benzo[f][1,2,4]triazolo[4,3-a][1,4]diazepin-4-yl)propionic acid-2-morpholinoethyl ester]: the Duration came out at 21.45 min and the Latency came out at 0.67 min.
The molecule `COC(=O)CC[C@@H]1N=C(c2ccccc2Cl)c2cc(Cl)ccc2-n2c(SCCCN3CCN(CCO)CC3)nnc21` [Compound 96, methyl (S)-3-(8-chloro-6-(2-chlorophenyl)-1-((3-(4-(2-hydroxyethyl)piperazin-1-yl)propyl)thio)-4H-benzo[f][1,2,4]triazolo[4,3-a][1,4]diazepin-4-yl)propionate] yielded a Duration of 7.98 min and a Latency of 0.49 min.
With `COC(=O)CC[C@@H]1N=C(c2ccccc2Cl)c2cc(Cl)ccc2-n2c(SCCn3cccc3)nnc21` [Compound 140, methyl (S)-3-(8-chloro-6-(2-chlorophenyl)-1-(2-((1H-pyrrol-1-yl)ethyl)thio)-4H-benzo[f][1,2,4]triazolo[4,3-a][1,4]diazepin-4-yl)propionate], the Duration worked out at 21.65 min and the Latency is listed as 0.45 min.
Taken in the same sequence, the figures for `COC(=O)CC[C@@H]1N=C(c2ccccc2)c2cc([N+](=O)[O-])ccc2-n2c(SCCCN(C)C)nnc21` [Compound 110, methyl (S)-3-(8-nitro-1-((3-(dimethylamino)propyl)thio)-6-phenyl-4H-benzo[f][1,2,4]triazolo[4,3-a][1,4]diazepin-4-yl)propionate] were 10.16 min and 0.22 min.
Turning to `CCSc1nnc2n1-c1ccc(Br)cc1C(c1ccccc1F)=N[C@H]2CCC(=O)OC` [Compound 12, methyl (S)-3-(8-bromo-6-(2-fluorophenyl)-1-(ethylthio)-4H-benzo[f][1,2,4]triazolo[4,3-a][1,4]diazepin-4-yl)propionate], the Duration is 17.21 min and the Latency is on record as 0.74 min.
Take `COC(=O)CC[C@@H]1N=C(c2ccccc2F)c2cc([N+](=O)[O-])ccc2-n2c(SCN3CCN(c4ccccc4)CC3)nnc21` [Compound 74, methyl (S)-3-(8-nitro-6-(2-fluorophenyl)-1-(((4-phenylpiperazin-1-yl)methyl)thio)-4H-benzo[f][1,2,4]triazolo[4,3-a][1,4]diazepin-4-yl)propionate]: the Duration is on record as 6.16 min and the Latency is recorded as 0.47 min.
Taken in the same sequence, the figures for `COC(=O)CC[C@@H]1N=C(c2ccccn2)c2cc(Br)ccc2-n2c(SCCCN(C)C)nnc21` [Compound 118, methyl (S)-3-(8-bromo-6-(pyridin-2-yl)-1-(3-((dimethylamino)propyl)thio)-4H-benzo[f][1,2,4]triazolo[4,3-a][1,4]diazepin-4-yl)propionate] were 15.44 min and 0.32 min.
Regarding `COC(=O)CC[C@@H]1N=C(c2ccccn2)c2cc(Br)ccc2-n2c1n[nH]c2=S` [Tautomer of compound 3, methyl (S)-3-(8-bromo-6-(pyridin-2-yl)-1-thio-2,4-dihydro-1H-benzo[f][1,2,4]triazolo[4,3-a][1,4]diazepin-4-yl)propionate], the Duration was 8.27 min and the Latency stood at 0.65 min.
In the same order, the values of `COC(=O)CC[C@@H]1N=C(c2ccccc2F)c2cc(Br)ccc2-n2c(SCN3CCOCC3)nnc21` [Compound 70, methyl (S)-3-(8-bromo-6-(2-fluorophenyl)-1-((morpholinomethyl)thio)-4H-benzo[f][1,2,4]triazolo[4,3-a][1,4]diazepin-4-yl)propionate] are 18.61 min and 1.01 min.

Staying with this test, now noted: 60 mg/kg, single rapid bolus via tail vein.
`COC(=O)CC[C@@H]1N=C(c2ccccc2)c2cc([N+](=O)[O-])ccc2-n2c(SCCCN(C)C)nnc21` [Compound 110, methyl (S)-3-(8-nitro-1-((3-(dimethylamino)propyl)thio)-6-phenyl-4H-benzo[f][1,2,4]triazolo[4,3-a][1,4]diazepin-4-yl)propionate] returned a Duration of 15.27 min and a Latency of 0.21 min.
Taken in the same sequence, the figures for `COC(=O)CC[C@@H]1N=C(c2ccccc2Cl)c2cc([N+](=O)[O-])ccc2-n2c(SCOP(=O)(O)O)nnc21` [Compound 113, methyl (S)-3-(8-nitro-6-(2-chlorophenyl)-1-(((phosphonooxy)methyl)thio)-4H-benzo[f][1,2,4]triazolo[4,3-a][1,4]diazepin-4-yl)propionate] were 9.49 min and 0.58 min.
In the same order, the values of `COC(=O)CC[C@@H]1N=C(c2ccccc2F)c2cc([N+](=O)[O-])ccc2-n2c(SCC3CC3)nnc21` [Compound 47, methyl (S)-3-(8-nitro-1-((cyclopropylmethyl)thio)-6-(2-fluorophenyl)-4H-benzo[f][1,2,4]triazolo[4,3-a][1,4]diazepin-4-yl)propionate] are 10.52 min and 0.82 min.
In the same order, the values of `CCN(CC)CCSc1nnc2n1-c1ccc(Br)cc1C(c1ccccc1Cl)=N[C@H]2CCC(=O)OC` [Compound 85, methyl (S)-3-(8-bromo-6-(2-chlorophenyl)-1-((2-(diethylamino)ethyl)thio)-4H-benzo[f][1,2,4]triazolo[4,3-a][1,4]diazepin-4-yl)propionate] are 13.12 min and 0.67 min.

Values taken from patent US20230416258A1, “BENZ[…], AND PREPARATION METHOD THEREFOR AND USE THEREOF” (CHINA PHARMACEUTICAL UNIVERSITY, priority 2020, published 2023).
